Laboratory results: PMC10708468, “New Dipyrroloquinones from a Plant-Derived Endophytic Fungus Talaromyces sp” (Molecules, 2023)
Entries after “also recorded” stand apart in the source; their conditions may differ. Read-outs that look alike come from different tables or passages of the source.

Legend:
[1] = tested on: liver cancer cells Hep G2; experiment: MTT cytotoxic activity assay, Hep G2; format: cell-based; conditions: Homo sapiens
Experimental: (§1) The 3-(4,5-dimethyl-2-thiazolyl)-2,5-diphenyl-2-h-tetrazole ammonium bromide (MTT) experiment was applied to test the cytotoxic activity for 1–6 against human lung cancer cells A549 and liver cancer cells Hep G2. Cells in RPMI-1640 medium (10% FBS, 0.4% penicillin–streptomycin solution) were digested with trypsin and diluted to the concentration of 1 × 10^4 cells/mL. The cell suspensions were diluted and added into a 96-well microtiter plate with 200 µL per well. The plate was then incubated in a CO2 incubator at 37 °C. Compounds 1–6 were added to the plate wells after 24 h and incubated for 72 h. Adriamycin (ADM) was used as the positive control, and DMSO as the blank control. The MTT solution was added after 72 h incubation, followed by incubation for 4 h. The cells were successively disrupted with 200 µL of DMSO for 10 min after the supernatant liquid was removed. The absorption was measured at 570 nm.

[2] = tested on: RAW264.7 cells; experiment: MTT cell viability of RAW264.7 cells (non-toxic concentrations); format: cell-based; conditions: 24 h
Experimental: (§2) RAW264.7 cells were cultured in DMEM with 10% fetal bovine serum (FBS) and 1% penicillin-streptomycin at 37 °C in 5% CO2. The MTT assay was used to evaluate cell viability. RAW264.7 cells were seeded on 96-well plates at 5 × 10^5 cells/well [26]. After incubation with compounds 1–6 at five concentrations ([…]) for 24 h, cells were treated with MTT (5 mg/mL) at 37 °C for 4 h. Then, the supernatant was removed and the […] was crystalised with DMSO. The absorbance was measured at 570 nm. The Griess reaction was applied to measure the accumulation of NO2^− in culture supernatant. RAW264.7 cells were treated with the compounds for 1 h then with the presence of LPS (1 μg/mL) for 24 h. The culture supernatant fluids (50 µL) and Griess reagent (50 µL) were mixed and incubated at room temperature. The absorbance was read at 570 nm after 15 min.

[3] = tested on: LPS-induced NO production in macrophage RAW264.7 cells; experiment: Inhibition of LPS-induced NO production (Griess reaction); format: cell-based; conditions: Mus musculus; for IC50: macrophage RAW264.7 cells, given as IC50, read-out: IC50 inhibition of LPS-stimulated NO production
Experimental: as §2

[4] = tested on: human lung cancer cells A549; experiment: MTT cytotoxic activity assay, A549; format: cell-based
Experimental: as §1

[5] = tested on: PI3K-Akt-mTOR signalling pathway; experiment: Western blot analysis of PI3K-Akt-mTOR signalling pathway in A549 cells; format: cell-based, human; conditions: 0.2 and 0.4 μM, 24 h
Experimental: Considering the significant cytotoxicities of penicillixanthone A (4), we evaluated its plausible molecular mechanism in A549 tumour cells using western blot analysis in Figure 5. Compound 4 (0.2 and 0.4 µM) was firstly pretreated for 24 h to test the PI3K expression.
Figure 5 The protein expression of the PI3K-Akt-mTOR signalling pathway of 4 was evaluated by western blot analysis. A549 cells were treated with 4 (0.2 and 0.4 μM) for 24 h, and the expression levels of PI3K, Akt and mTOR were tested by the responsible antibodies. […] Data are represented as the mean ± SD, n = 3, *** p < 0.01 vs. Control.

[6] = HepG2 cells, MTT, 72 h incubation, read-out: IC50 cytotoxicity HepG2
[7] = LPS (1 μg/mL)-induced NO production in RAW264.7 cells, 24 h, Griess reaction, read-out: EC50
[8] = A549 cells, MTT, 72 h incubation, read-out: IC50 cytotoxicity A549

| EC50 [3, 7] | IC50 [3] | Compound | IC50 [1, 6] | Non-Toxic Concentrations [2] | IC50 [4, 8] | IC50 ([1]; HepG2, Hep G2 cell line, read-out: IC50 cytotoxic activity Hep G2) | phospho-PI3K expression [5] | phospho-mTOR/Akt expression [5] | expression of PI3K, Akt and mTOR (PI3K-Akt-mTOR signalling pathway) ([5]; p < 0.01 vs. Control) | EC50 ([3]; RAW264.7, 24 h) | IC50 ([4]; A549 cell line, read-out: IC50 cytotoxic activity A549) |
| --- | --- | --- | --- | --- | --- | --- | --- | --- | --- | --- | --- |
| 20.3 µM | 20.3 µM | CC(C)C(=O)c1cc2c([nH]1)C(=O)c1cc([C@H](O)C(C)C)[nH]c1C2=O [Compound 1, talaroterreusinone A] | 111 µM | 3.04 to 304.87 µM | 133 µM | – | – | – | – | – | – |
| 30.7 µM | 30.7 µM | CO[C@@H](c1cc2c([nH]1)C(=O)c1cc([C@H](O)C(C)C)[nH]c1C2=O)C(C)C [Compound 2, Talaroterreusinone B] | 84.7 µM | 2.90 to 190.69 µM | 98.8 µM | – | – | – | – | – | – |
| 20.6 µM | 20.6 µM | CO[C@H](c1cc2c([nH]1)C(=O)c1cc([C@H](OC)C(C)C)[nH]c1C2=O)C(C)C [Compound 3, terreusinone D] | 57.4 µM | 2.79 to 279.32 µM | 62.7 µM | – | – | – | – | – | – |

Further lines, the compound ahead of its results:

| Compound | EC50 [3, 7] | IC50 [3] | IC50 [1, 6] | Non-Toxic Concentrations [2] | IC50 [4, 8] | IC50 ([1]; HepG2, Hep G2 cell line, read-out: IC50 cytotoxic activity Hep G2) | phospho-PI3K expression [5] | phospho-mTOR/Akt expression [5] | expression of PI3K, Akt and mTOR (PI3K-Akt-mTOR signalling pathway) ([5]; p < 0.01 vs. Control) | EC50 ([3]; RAW264.7, 24 h) | IC50 ([4]; A549 cell line, read-out: IC50 cytotoxic activity A549) |
| --- | --- | --- | --- | --- | --- | --- | --- | --- | --- | --- | --- |
| COC(=O)[C@]12Oc3ccc(-c4ccc(O)c5c4O[C@@]4(C(=O)OC)C(=C(O)C[C@@H](C)[C@@H]4O)C5=O)c(O)c3C(=O)C1=C(O)C[C@@H](C)[C@@H]2O [Compound 4, penicillixanthone A] | – | – | 0.212 µM | – | 0.117 µM | 0.117 µM | decrease the phospho-PI3K expression | significantly suppressed | inhibiting the PI3K-Akt-mTOR signalling pathway; also recorded: inhibited the expression of PI3K, Akt and mTOR | 1 µM | 0.212 µM |
| CC(O)Cc1cc(O)c2c(c1)C(=O)c1cc(O)cc(O)c1C2=O (centres unmarked) [Compound 5, isorhodoptilometrin] | 121 µM | – | > 150 µM | 3.18 to 318.47 µM | > 150 µM | – | – | – | – | – | – |
| C/C1=C\Cc2c(cc(O)c3c2C[C@@H](C)OC3=O)OC(C)(C)[C@@H](O)CC/C(C)=C/CC1 [Compound 6, chrysomutanin] | 142 µM | – | 43.9 µM | 2.41 to 241.54 µM | 42.5 µM | – | – | – | – | – | – |
| COc1cccc2c1C(=O)c1c(O)c3c(c(O)c1C2=O)C[C@@](O)(C(=O)CO)C[C@@H]3O[C@H]1C[C@H](N)[C@H](O)[C@H](C)O1 [adriamycin, Adriamycin, reference compound] | – | – | 1.2 µM | – | 3.5 µM | – | – | – | – | – | – |
| Oc1ccc(/C=C/c2cc(O)cc(O)c2)cc1 [resveratrol, reference compound] | 1.6 µM | – | – | 0.43 to 109.52 µM | – | – | – | – | – | – | – |
